Reference: the supplement of paper PMC12420376

Tests used:
Experiment in all cases: cell viability relative to untreated control (ex vivo patient spheroids); higher = less cytotoxic
Conditions in all cases: 72 h
Gem031 = system: Gem031 (ex vivo spheroids of an HRD-negative high-grade serous ovarian cancer)
Procedure: (§1)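 Ex vivo 3D spheroid cultures from dissociated tumours of HGSOC patients (DET3CT platform) were treated for 72 h with dose matrices of carboplatin combined with birinapant or vorinostat (nM). Live (TMRM) and dead (POPO-1) cells were imaged and viability was expressed as % of untreated control.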

Gem015 = system: Gem015 (ex vivo spheroids of an HRD-positive high-grade serous ovarian cancer)
Procedure: as §1

Gem129 = system: Gem129 (ex vivo spheroids of an HRD-positive high-grade serous ovarian cancer)
Procedure: as §1

O=C(O)C1(C(=O)O)CCC1.[NH2-].[NH2-].[Pt+2] [Carboplatin] + CC[C@H](NC(=O)[C@H](C)NC)C(=O)N1C[C@@H](O)C[C@H]1Cc1c(-c2[nH]c3cc(F)ccc3c2C[C@@H]2C[C@H](O)CN2C(=O)[C@H](CC)NC(=O)[C@H](C)NC)[nH]c2cc(F)ccc12 [Birinapant]
cell viability [%]
Conditions	partner drug concentration 0 nM	partner drug concentration 0.1 nM	partner drug concentration 1 nM	partner drug concentration 10 nM	partner drug concentration 100 nM	partner drug concentration 1000 nM
Gem015, carboplatin concentration 10 nM	–	100	93.1	93.5	82	55.1
Gem015, carboplatin concentration 100 nM	–	98.5	90	101	77	67.2
Gem015, carboplatin concentration 1000 nM	–	103	89.1	81.6	85.2	59.3
Gem015, carboplatin concentration 10000 nM	91.1	73.5	97.6	89.5	84.6	59
Gem015, carboplatin concentration 100000 nM	61.2	58.2	75.8	73.6	58.7	39.9
Gem031, carboplatin concentration 10 nM	–	93	91.2	96	55.3	25.3
Gem031, carboplatin concentration 100 nM	–	98.1	92.1	88.6	61.2	26.3
Gem031, carboplatin concentration 1000 nM	–	98.6	91.8	93.6	56.8	24.8
Gem031, carboplatin concentration 10000 nM	79.2	87	97.5	77.6	46.3	15.5
Gem031, carboplatin concentration 100000 nM	26.3	26.1	27.6	22.9	11.4	3.6
Gem129, carboplatin concentration 10 nM	–	105	82.3	101	87.1	76.2
Gem129, carboplatin concentration 100 nM	–	94.9	97.3	96	89.5	96.1
Gem129, carboplatin concentration 1000 nM	–	96.4	100	92.5	86.2	73.2
Gem129, carboplatin concentration 10000 nM	80.4	86.7	95.8	86.7	90.5	67.4
Gem129, carboplatin concentration 100000 nM	57.5	57.3	31.2	29.8	27.8	19.6

O=C(O)C1(C(=O)O)CCC1.[NH2-].[NH2-].[Pt+2] [Carboplatin] + O=C(CCCCCCC(=O)Nc1ccccc1)NO [Vorinostat]
cell viability [%]
Conditions	partner drug concentration 0 nM	partner drug concentration 1 nM	partner drug concentration 10 nM	partner drug concentration 100 nM	partner drug concentration 1000 nM	partner drug concentration 10000 nM
Gem015, carboplatin concentration 10 nM	85.7	100	97.5	97.6	76.3	35.6
Gem015, carboplatin concentration 100 nM	97.2	94.2	92.8	93.8	79.3	37.7
Gem015, carboplatin concentration 1000 nM	88.1	96.2	91.6	91.3	71.6	36.2
Gem015, carboplatin concentration 10000 nM	91.1	84.9	97.1	95.6	77.2	36.1
Gem015, carboplatin concentration 100000 nM	61.2	71.2	77.1	74.6	63.5	32.3
Gem031, carboplatin concentration 10 nM	87.9	97.2	94	90.4	85.1	89.4
Gem031, carboplatin concentration 100 nM	110	97.1	101	95.1	92.6	98.7
Gem031, carboplatin concentration 1000 nM	88	96.9	104	100	93.3	64.1
Gem031, carboplatin concentration 10000 nM	79.2	97.2	90.6	92.2	78.4	38.7
Gem031, carboplatin concentration 100000 nM	26.3	31.4	30.1	22.9	16.9	14.6
Gem129, carboplatin concentration 10 nM	95.8	104	37.5	107	87.6	80.2
Gem129, carboplatin concentration 100 nM	82.8	104	102	97.6	91.9	77.7
Gem129, carboplatin concentration 1000 nM	86	109	108	98.1	81.2	77.3
Gem129, carboplatin concentration 10000 nM	80.4	97.8	90.4	90.4	87.5	59.6
Gem129, carboplatin concentration 100000 nM	57.5	35.8	41.7	33.9	25.8	3.4
